“Also recorded” adds a separate entry of the source.
Assays:
Wistar rats = assay: Study 2 (reversal): oral glucose tolerance test and HOMA-IR; type: in vivo; conditions: Study 2: 9 weeks high fat-high cholesterol diet, then 4 weeks treatment
Description: Study design: All animal procedures were approved by the Catholic University of Rome Institutional Animal Care Committee. The design of the studies is summarized in FIG. 18, Panels A and B. • Study 1: Twenty adult Wistar rats, aged 8-10 weeks, were included in the study. The rats were housed in individual cages at 22° C. with 12-h light cycles and had ad libitum access to food and water. Rats were fed a high-fat high-cholesterol diet (44% Carbohydrate, 14% Protein, 42% fat+0.2% Cholesterol) (Mucedola, Milan, IT) for four weeks in the presence or absence of 1% Dodecanedioic acid, sodium salt (w/vol) dissolved in the water (FIG. 18, Panel A). Body weight and food/water intake were monitored weekly. • Study 2: Twenty adult Wistar rats, aged 8-10 weeks, were included in the study. The rats were housed in individual cages at 22° C. with 12-h light cycles and had ad libitum access to food and water. Rats were fed a high-fat high-cholesterol diet (44% Carbohydrate, 14% Protein, 42% fat+0.2% Cholesterol) (Mucedola, Milan, IT). After nine weeks of diet, rats were randomly assigned to one of the following groups: Four weeks of high-fat high-cholesterol diet or four weeks of high-fat high-cholesterol diet and 1% Dodecanedioic acid, sodium salt (w/v) dissolved in the water FIG. 18, Panel B). Body weight and food/water intake were monitored weekly.
Oral Glucose Test Tolerance (OGTT): All animals underwent an OGTT at the end of the study. After an overnight fasting, the rats received a 50% D-glucose solution (1 g/kg body weight) by oral gavage. Blood samples were taken by tail bleeding and collected in EDTA tubes. All blood samples were immediately centrifuged, and plasma divided into appropriate subsamples and stored at −20° C. for further analysis. Blood glucose and was measured at 0, 20, 40, 60, 80, 100 and 120 minutes, while plasma insulin at 0, 60 and 120 minutes. Blood glucose levels were measured by glucometer (Accu-Chek, Roche Diagnostics Division, Grenzacherstrasse, CH). Plasma insulin was measured by ELISA (EMD Millipore Corporation, Billerica, MA), with a sensitivity of 0.1 ng/ml and an intra-and inter-assay precision of 1.9% and 7.6%, respectively.
DODA administration reverses insulin resistance and NASH: To assess if DODA could reverse the development of diet-induced insulin resistance and NASH, rats were first fed high fat high cholesterol diet for 9 weeks to develop insulin resistance and NASH. After 9 weeks of diet, DODA was administered for 4 weeks to assess insulin resistance and NASH reversal. Rats fed high fat high cholesterol diet without the administration of DODA were included as controls.
Panels A and B. • Study 1: Twenty adult Wistar rats, aged 8-10 weeks, were included in the study. The rats were housed in individual cages at 22° C. with 12-h light cycles and had ad libitum access to food and water. Rats were fed a high fat high cholesterol diet (44% Carbohydrate, 14% Protein, 42% fat+0.2% Cholesterol) for 4 weeks in the presence or absence of 1% Dodecanedioic acid, sodium salt dissolved in the water (FIG. 25, Panel A). Body weight and food/water intake were monitored weekly. • Study 2: Twenty adult Wistar rats, aged 8-10 weeks, were included in the study. The rats were housed in individual cages at 22° C. with 12-h light cycles and had ad libitum access to food and water. Rats were fed a high fat-high cholesterol diet (44% Carbohydrate, 14% Protein, 42% fat+0.2% Cholesterol). […] Body weight and food/water intake were monitored weekly. […]

SIRT3 = SIRT3 protein levels in liver cells; type: cell-based; conditions: AML-12 liver cells, 24 hours; p=0.028
Description: (§1) To that end, the inventors used endothelial cells (EOMA cells) and liver cells (AML-12 cells) in vitro and quantified various markers in response to exposure of the cells to environmental challenge in the presence and absence of DDA at low concentrations. Unless indicated otherwise, the DDA concentration in the in vitro experiments was 5 mcg per microliter. More specifically, the inventors measured p-H2AX protein levels as a marker for DNA damage, PGC-1α protein levels as a marker for mitochondrial biogenesis, NAMPT enzyme levels as a marker for potential for NAD+ production, and total antioxidant capacity as a marker of cellular health. In addition, the inventors also measured global SIRT activity as a gauge of activity for all SIRT enzymes, and in particular SIRT1 enzyme levels as markers for autophagy and various beneficial processes associated with a caloric restricted diet, and SIRT3 levels as markers for mitochondrial function and longevity.
In still further experiments, the inventors also investigated whether or not DDDA could have stimulatory effects on selected SIRT proteins. More specifically, the inventors tested the effects of DDDA on SIRT3 and SIRT1, and exemplary results are shown in FIG. 9 and FIG. 10, respectively. […] N=5-6 plates per treatment. […] Beyond this trend, however, no other observations were evident. N=5-6 plates per treatment.

[1] = tested on: endothelial cells (EOMA cells); assay: DNA damage in endothelial cells after oxidative insult by H2O2; type: cell-based; conditions: 6 hours, p-value >0.100
Description: as §1
In yet a further series of experiments, the inventors also sought to confirm whether or not DDDA would have a modulatory effect in endothelial cells using the same markers and experimental conditions as noted above.
Finally, the inventors also evaluated DNA damage in endothelial cells after oxidative insult by H2O2, and exemplary results are shown in FIG. 17. […] N=5-6 plates per treatment.

O=C(O)CCCCCCCCCCC(=O)O [DDDA, dodecanedioic acid]
blood glucose concentrations during an oral glucose tolerance test (Wistar rats; vs controls): decrease
insulin resistance as assessed by HOMA-IR (Wistar rats; vs controls): reverse insulin resistance
plasma insulin concentrations during an oral glucose tolerance test (Wistar rats; vs controls): decrease
diet-induced insulin resistance and NASH (overall, reversal) (Wistar rats; listed as C12): could reverse both diet-induced insulin resistance and NASH; also recorded: reverses diet-induced insulin resistance
diet-induced insulin resistance and NASH (overall, reversal) (Wistar rats; listed as DODA): could reverse both diet-induced insulin resistance and NASH; also recorded: reverses diet-induced insulin resistance
SIRT3 protein levels (SIRT3): significantly increased
DNA damage [1]: numerically decreased DNA damage

From US20260053767A1, “Hepatoprotective Compositions And Methods” (Jemyll, Ltd., priority 2022, published 2026)
